Experimental data taken from US5556744A, “Methods and compositions for diagnosing and treating certain HIV infected patients” (The Trustees of the University of Pennsylvania, priority 1994, dated 1996).

Tests used:
Parameters in all cases: species or system human
[1] = system: maternal serum samples (antibodies); assay: ELISA peptide-binding of maternal sera, expanded peptide collection (Example 5); conditions: for Binding / reactivity of maternal sera to peptide (in words): Example 5
Description: The gp120 and gp41 peptides used in this experiment include peptides 60 [SEQ ID NO:9], 93 [SEQ ID NO:10], 94 [SEQ ID NO:1], 95 [SEQ ID NO:11], 96 [SEQ ID NO:12], 97 [SEQ ID NO:13], 59 [SEQ ID NO:14], 106 [SEQ ID NO:15], 107 [SEQ ID NO:[…]], 1029/33 [SEQ ID NO:2], p18p [SEQ ID NO:17], B138 [SEQ ID NO:3], 466 [SEQ ID NO:4], 497 [SEQ ID NO:18], 117 [SEQ ID NO:19], F560 [SEQ ID NO:20], 35 [SEQ ID NO:5], 120 [SEQ ID NO:21], 121 [SEQ ID NO:22], 123 [SEQ ID NO:23], 36 [SEQ ID NO:24], 40 [SEQ ID NO:25], 41 [SEQ ID NO:26], 649 [SEQ ID NO:6], 53 [SEQ ID NO:7], 55 [SEQ ID NO:27], 128 [SEQ ID NO:28], 129 [SEQ ID NO:29], 132 [SEQ ID NO:30], 57 [SEQ ID NO:8], and 1103/55 [SEQ ID NO:31] from Table 2. These peptides were synthesized based on the same HIV IIIB isolate as were the peptides of Table 2. Alternative designations for these peptides are provided in brackets.
Each of the peptides was at least 85% pure, making them suitable for ELISA analyses. The average length of these peptides was 18 amino acid residues, which allows for a certain degree of local flexibility and conformational folding, thus facilitating detection of antibody species with reactivities to shaped structures.
The maternal serum samples were obtained from the Mothers/Infants Cohort Study described in Example 1. For the ELISA peptide-binding analyses performed essentially as described in Example 3, maternal serum samples were diluted to 1:50 or 1:500 with blocking buffer (1% bovine serum albumin in phosphate-buffered saline containing 0.05% Tween 20). Binding was measured using 10 μg/mL peptide per well and was considered positive if the experimental/control OD450nm ratio was ≥2. Normal (HIV seronegative) human sera were used as controls.

[2] = system: maternal sera (antibodies); assay: ELISA peptide-binding of maternal sera (Example 6); conditions: for Number of Non-Transmitters which bound to peptide / Percent of Non-Transmitters which bound to peptide: N = 12; for Number of Transmitters which bound to peptide / Percent of Transmitters which bound to peptide: N = 4
Procedure, shortened: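 Third-trimester maternal sera, from HIV-1 transmitting and non-transmitting mothers, were tested by ELISA against ~16-residue peptides spanning HIV-1 external and transmembrane glycoproteins. Each serum was run with at least 40 peptides, and values are the percentage of sera binding each peptide.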

[3] = system: maternal HIV+ sera (antibodies); assay: RIA / ELISA binding of maternal HIV+ sera to gp120 and gp41 peptides (Example 3); conditions: for Percent of the maternal serum samples that bound to the peptide: all 20 samples; for Correlation of peptide recognition with lack of vertical transmission: in words
Procedure, shortened: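 Peptides were coated at 10 μg/ml in carbonate buffer pH 9.6 and blocked with 1% BSA. Sera at 1:50 and 1:500 were incubated overnight at 4°C and detected with ¹²⁵I anti-human IgG (RIA) or HRP/TMB at OD450 (ELISA). Specific binding was taken as peptide minus no-peptide wells, scored as a ratio to normal human serum.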

[4] = Serum No. 1, Non-Transmission Group
[5] = Serum No. 2, Non-Transmission Group
[6] = Serum No. 3, Non-Transmission Group
[7] = Serum No. 4, Transmission Group
[8] = Serum No. 5, Transmission Group
[9] = Serum No. 6, Non-Transmission Group
[10] = Serum No. 7, Non-Transmission Group
[11] = Serum No. 8, Non-Transmission Group
[12] = Serum No. 9, Non-Transmission Group
[13] = Serum No. 10, Transmission Group
[14] = Serum No. 11, Non-Transmission Group
[15] = Serum No. 12, Non-Transmission Group
[16] = Serum No. 13, Transmission Group
[17] = Serum No. 14, Transmission Group
[18] = Serum No. 15, Transmission Group
[19] = Serum No. 16, Non-Transmission Group
[20] = Serum No. 17, Non-Transmission Group
[21] = Serum No. 18, Non-Transmission Group
[22] = Serum No. 19, Transmission Group
[23] = Serum No. 20, Non-Transmission Group

Substance	Binding / reactivity of maternal sera to peptide (in words) [1]	Number of Non-Transmitters which bound to peptide [2]	Percent of Non-Transmitters which bound to peptide [2] [%]	Number of Transmitters which bound to peptide [2]	Percent of Transmitters which bound to peptide [2] [%]	Binding of maternal HIV+ serum to peptide (sera/NHS ratio) [3, 4]	Binding of maternal HIV+ serum to peptide (sera/NHS ratio) [3, 5]	Binding of maternal HIV+ serum to peptide (sera/NHS ratio) [3, 6]	Binding of maternal HIV+ serum to peptide (sera/NHS ratio) [3, 7]	Binding of maternal HIV+ serum to peptide (sera/NHS ratio) [3, 8]	Binding of maternal HIV+ serum to peptide (sera/NHS ratio) [3, 9]	Binding of maternal HIV+ serum to peptide (sera/NHS ratio) [3, 10]	Binding of maternal HIV+ serum to peptide (sera/NHS ratio) [3, 11]	Binding of maternal HIV+ serum to peptide (sera/NHS ratio) [3, 12]	Binding of maternal HIV+ serum to peptide (sera/NHS ratio) [3, 13]	Binding of maternal HIV+ serum to peptide (sera/NHS ratio) [3, 14]	Binding of maternal HIV+ serum to peptide (sera/NHS ratio) [3, 15]	Binding of maternal HIV+ serum to peptide (sera/NHS ratio) [3, 16]	Binding of maternal HIV+ serum to peptide (sera/NHS ratio) [3, 17]	Binding of maternal HIV+ serum to peptide (sera/NHS ratio) [3, 18]	other results
56: gp41 peptide, amino acids 747-767, HIV strain IIIB, SEQ ID NO: 156 (RLVNGSLALIWDDLRSLCLFS) [Peptide 56]	recognized by the transmission group	0	0	0	0																Percent of both groups that bound to the peptide ([1]; transmission and non-transmission groups): more than 50%
58: gp41 peptide, amino acids 794-817, HIV strain IIIB, SEQ ID NO: 173 (KYWWNLLQYWSQELKNSAVSLLNA) [Peptide 58]	recognized by the transmission group	3	25	0	0																
CQNQQEKNEQELLEL [Peptide 649]	recognized by the transmission group	7	43.8	2	50	++ (which value is greater than 3)	+ (which value is between 2 to 3)	+ (which value is between 2 to 3)	+ (which value is between 2 to 3)	- (specific OD450 or cpm of sera sample binding to peptide divided by the specific OD450 or cpm of NHS sample binding to peptide, which value is less than 2)	++ (which value is greater than 3)	++ (which value is greater than 3)	++ (which value is greater than 3)	- (specific OD450 or cpm of sera sample binding to peptide divided by the specific OD450 or cpm of NHS sample binding to peptide, which value is less than 2)	- (specific OD450 or cpm of sera sample binding to peptide divided by the specific OD450 or cpm of NHS sample binding to peptide, which value is less than 2)	++ (which value is greater than 3)	++ (which value is greater than 3)	- (specific OD450 or cpm of sera sample binding to peptide divided by the specific OD450 or cpm of NHS sample binding to peptide, which value is less than 2)	+ (which value is between 2 to 3)	+ (which value is between 2 to 3)	Difference in binding of samples from transmission vs non-transmission group (Spearman rank-order correlation) ([3]; Example 3): significant statistical difference; Binding of maternal HIV+ serum to peptide (sera/NHS ratio) [3, 19]: - (specific OD450 or cpm of sera sample binding to peptide divided by the specific OD450 or cpm of NHS sample binding to peptide, which value is less than 2); Binding of maternal HIV+ serum to peptide (sera/NHS ratio) [3, 20]: + (which value is between 2 to 3); Binding of maternal HIV+ serum to peptide (sera/NHS ratio) [3, 21]: + (which value is between 2 to 3); Binding of maternal HIV+ serum to peptide (sera/NHS ratio) [3, 22]: - (specific OD450 or cpm of sera sample binding to peptide divided by the specific OD450 or cpm of NHS sample binding to peptide, which value is less than 2); Binding of maternal HIV+ serum to peptide (sera/NHS ratio) [3, 23]: - (specific OD450 or cpm of sera sample binding to peptide divided by the specific OD450 or cpm of NHS sample binding to peptide, which value is less than 2); Percent of the maternal serum samples that bound to the peptide [3]: 70%; Correlation of peptide recognition with lack of vertical transmission [3]: correlated with non-transmission status; Correlation of peptide recognition with lack of vertical transmission ([3]; listed as SEQ ID NO: 6): clearly correlated to non-transmission status
NATAIAVAEGTDRVIEVVQGAYRAI [1103/55]	recognized by the transmission group	0	0	0	0	- (specific OD450 or cpm of sera sample binding to peptide divided by the specific OD450 or cpm of NHS sample binding to peptide, which value is less than 2)	++ (which value is greater than 3)	- (specific OD450 or cpm of sera sample binding to peptide divided by the specific OD450 or cpm of NHS sample binding to peptide, which value is less than 2)	++ (which value is greater than 3)	- (specific OD450 or cpm of sera sample binding to peptide divided by the specific OD450 or cpm of NHS sample binding to peptide, which value is less than 2)	++ (which value is greater than 3)	++ (which value is greater than 3)	++ (which value is greater than 3)	- (specific OD450 or cpm of sera sample binding to peptide divided by the specific OD450 or cpm of NHS sample binding to peptide, which value is less than 2)	- (specific OD450 or cpm of sera sample binding to peptide divided by the specific OD450 or cpm of NHS sample binding to peptide, which value is less than 2)	- (specific OD450 or cpm of sera sample binding to peptide divided by the specific OD450 or cpm of NHS sample binding to peptide, which value is less than 2)	++ (which value is greater than 3)	- (specific OD450 or cpm of sera sample binding to peptide divided by the specific OD450 or cpm of NHS sample binding to peptide, which value is less than 2)	++ (which value is greater than 3)	- (specific OD450 or cpm of sera sample binding to peptide divided by the specific OD450 or cpm of NHS sample binding to peptide, which value is less than 2)	Binding of maternal HIV+ serum to peptide (sera/NHS ratio) [3, 19]: - (specific OD450 or cpm of sera sample binding to peptide divided by the specific OD450 or cpm of NHS sample binding to peptide, which value is less than 2); Binding of maternal HIV+ serum to peptide (sera/NHS ratio) [3, 20]: ++ (which value is greater than 3); Binding of maternal HIV+ serum to peptide (sera/NHS ratio) [3, 21]: ++ (which value is greater than 3); Binding of maternal HIV+ serum to peptide (sera/NHS ratio) [3, 22]: - (specific OD450 or cpm of sera sample binding to peptide divided by the specific OD450 or cpm of NHS sample binding to peptide, which value is less than 2); Binding of maternal HIV+ serum to peptide (sera/NHS ratio) [3, 23]: - (specific OD450 or cpm of sera sample binding to peptide divided by the specific OD450 or cpm of NHS sample binding to peptide, which value is less than 2); Percent of the maternal serum samples that bound to the peptide [3]: 45%
